In assay [1] the test system is Plasmodium falciparum T96 Chloroquinresistente Zellinie B. The assay is described as follows: Growth inhibition of chloroquine-resistant P. falciparum cultured in human erythrocytes. It counts as cell-based. The note with it: for IC50: Plasmodium falciparum, Erythrocyte, over 2 cycles. From the text: (§1) • a) Durch konventionelles Züchten des Stammes Plasmodium falciparum T96 in einer 2 % (V/V) Suspension von humanen Erythrozyten wird der Grundorganismus-Zellinie A fortgepflanzt, welche eine normale Empfindlichkeit gegenüber Chloroquin aufweist. • b) Zellinie A des obigen Stammes wird unter analogen Standardbedingungen wie unter a) gezüchtet, jedoch mit Zusatz von immer ansteigenden Konzentrationen von Chloroquin, bis eine Chloroquinresistente Zellinie B resultiert, welche weiterhin in Kulturmedien mit einer 500 nM-Konzentration von Chloroquin andauernd normales Wachstum (dieselbe Wachstumsraten wie Zellinie A) aufweist.
(§2) • I. Die Züchtung von Testorganismen erfolgt unter den für Züchtung von Plasmodien üblichen Bedingungen auf einer 2 % Suspension von humanen Erythrozyten, supplementiert mit 50 mg/1 Hypoxanthin und gegebenenfalls unter Zugabe der getesteten Hemmsubstanz in gewünschter Konzentration. Die initiale Parasitämie (- der prozentuelle Anteil der zu Beginn von Plasmodien infizierten Erythrozyten) beträgt 1-2 %. Das Resultat (Hemmwirkung) wird als IC50 ausgewertet, d.h. jene Konzentration des Wirkstoffes, die eine Senkung der finalen Parasitämie um 50 %, d.h. eine 50%ige Hemmung des Wachstums, verursacht. • II. In einer alternativen Versuchsanordnung wird beim Einhalten aller übrigen Bedingungen ohne Zugabe von Hypoxanthin und mit einer initialen Parasitämie von 0,5 % gearbeitet.

Assay [2] deals with Plasmodium falciparum T96 Zellinie A. The assay is described as follows: Growth inhibition of chloroquine-sensitive P. falciparum cultured in human erythrocytes. It counts as cell-based. The note with it: for IC20 / IC50: Plasmodium falciparum, Erythrocyte; for IC50: over 2 cycles.
Source text: as §1, §2

In the next assay the test system is P. vinckei. Particulars: cited from earlier work.
Assay [3] deals with Plasmodium falciparum in Kultur an menschlichen Erythrozyten. Particulars: culture on human erythrocytes; cited from earlier work.

Like-named read-outs stand apart in the source and are kept apart here.

A word on the IC50: it is the concentration at which inhibition is half-maximal. What is called IC20 is the concentration needed for an effect of 20%. With `CCN(CC)CCCC(C)Nc1ccnc2cc(Cl)ccc12` (stereo not drawn) [Chloroquin, 7-Chlor-4-(4-diethylamino-l-methylbutylamino)chinolin], the IC50 in assay [1] (Versuchsanordnung I) was roughly 800 nM; in assay [2] (Versuchsanordnung I (50 mg/l hypoxanthine, initial parasitaemia 1-2 %)) it was 50 nM; in assay [2] (Versuchsanordnung II (no hypoxanthine, initial parasitaemia 0,5 %)), 10 to 15 nM. Moreover, the Vermehrungsfaktor in assay [1] (Versuchsanordnung I, with 500 nM chloroquine in the medium, same as Zellinie A without chloroquine (within 48 hours)) is on record as 7-9. The compound also came in with an IC20 in assay [2] of 10 nM.

For the compound `CC(=O)N(O)CCCCCNC(=O)CCC(=O)N(O)CCCCCNC(=O)CCC(=O)N(O)CCCCCN` [Desferrioxamin B (Mesylat)], in assay [2] (Versuchsanordnung I, Hauptversuch II, read-out: IC20), the IC20 was determined as 9000 nM.

On to `CC(=O)N(O)CCCCCNC(=O)CCC(=O)N(O)CCCCCNC(=O)CCC(=O)N(O)CCCCCN` [Desferrioxamin B, 6,17,28-Trihydroxy-7,10,18,21,29-pentaoxo-6,11,17,22,28-pentaaza-triacontanylamin], for which the figures for the “Wachstum des Parasiten” value with P. vinckei (0,2 g/kg) and in the assay with P. vinckei (1,0 g/kg) were “deutlich hemmt” and “vollständig tötet”, respectively. Moreover, the IC50 in assay [1] (Versuchsanordnung I, without chloroquine in the test medium) was 6000 ± 1500 nM; in assay [1] (Versuchsanordnung II, without chloroquine in the test medium), 2000 ± 1000 nM; in assay [2] (Versuchsanordnung I, read-out: IC50) it was 17000 ± 3000 nM; in assay [2] (Versuchsanordnung II, read-out: IC50) it was 5000 ± 2000 nM. Further, in assay [1] (in the presence of a chloroquine concentration inactive by itself, compared with no chloroquine), the “Konzentration für dieselbe Wachstumshemmung in the presence of chloroquine” value is given as “halbiert sich noch weiter”. In assay [1] (without chloroquine, compared with normally sensitive strain under the same conditions), the “Konzentration für dieselbe Wachstumshemmung, resistant strain compared with sensitive strain” value is listed as “etwa dreimal niedrigeren Konzentration”. The “Wachstum (in vitro)” value in assay [3] is on record as “nicht nur in ihrem Wachstum gehemmt, sondern auch getötet”.

Take `COc1ncnc(NS(=O)(=O)c2ccc(N)cc2)c1OC` [Sulfadoxine]: the “Wachstumshemmung (result in words)” value in assay [2] (Hauptversuch II with this substance in place of chloroquine, combined with Desferrioxamin B) is given as “Analoge Resulte”.

(Values after EP0214933A2, “Mixture preparations for the treatment of malaria” (CIBA-GEIGY AG, priority 1985, dated 1987).)
